Read-outs that look alike come from different tables or passages of the source. Starred links: 1 amine or outer side, 2 acyl side, 3 side chain; linkers in the order of their positions; H or OH if unused. Positions of bridges follow the written chain, without caps; N, C: chain ends. Non-standard residues stand in square brackets, D forms with d. Residues, ends and D or L forms follow the SMILES beside them. ξ: configuration not given here. Biphenyl(4,4'-CH2)2 = c1cc(-c2ccc(C[*:2])cc2)ccc1C[*:1]; ξαMeNle(6-ylidene) = CC(CCCC=[*:3])(N[*:1])C(=O)[*:2]; X1 = CC(CCCCCCC=[*:3])(N[*:1])C(=O)[*:2]; Octanediyl(1,8) = C(CCCC[*:2])CCC[*:1]; ξC = NC(CS)C(=O)O
Experiments:
[1] = test system: MM1R, lymphoblast (myeloma), resistant to Dexamethasone
Method: MM1R, lymphoblast, (myeloma), ATCC® CRL-2975™, resistant to Dexamethasone
(§1) All cell lines were cultured in incubator at 37° C. in RPMI-1640 (Sigma R8758) medium with 10% of fetal bovine serum inactivated (FBS) and 2 mM glutamine (Sigma G7513). During the amplification step cells were centrifuged and transferred into the culturing medium. Cells were counted in a Neubauer chamber after labelling with Tripan-Blue.
(§2) Cells were seeded at a density of 10000 cells/well in 100 μl of medium in 96 well plates. After 24 h, the compounds to be tested were added to calculate the dose/response curve at the starting concentration of 100 μM with serial dilutions (1:1). Controls are the untreated cells. Each experiment was performed in triplicate.
(§3) Cells were incubated with the peptidomimetic compound (S09) at the indicated concentrations during 24-72 h in incubator under CO2 atmosphere at 37° C. Then, cell viability was measured by means of MTT (3-(4,5-dimethylthiazol-2-yl)-2,5-diphenyltetrazolium bromide) assay. Stock solution of MTT (475989 Calbiochem) was 5 mg/ml in PBS. 1×.10 μl/well of MTT solution were added and the plate was incubated for 3-4 hr. The medium was discarded and 100 μl of extracting buffer (PBS 1×, 15% SDS, 50% […] N,N-Dimethylformamide, pH 4.7) were added to each well. Plates were incubated for 16 h at room temperature under orbital shaking. Absorbance at 570 nm was finally measured. As negative control (experiment noise) 3 wells were treated with 20 μl/well of a solution of SDS 10% in H2O.
(§4) Data analysis was performed calculating the percentage of cell viability normalized vs. the values of negative control, which was considered equal to 100%. The dose/response curve was fitted through the sigmoidal equation dose-response (variable slope) and the IC50 values were calculated as follow:
(§5) Y=Bottom+(Top−Bottom)/(1+10^{[(LogIC50−X)*HillSlope]},
(§6) All cell lines were cultured in incubator at 37° C. in RPMI-1640 (Sigma R8758) medium with 10% of fetal bovine serum inactivated (FBS) and 2 mM glutamine (Sigma G7513).
as §2, with “of 10,000” for “of 10000”, “of 40” for “of 100”
as §3, with “compounds” for “compound (S09)”

[2] = test system: RPMI-8266, lymphoblast (myeloma); experiment: MTT viability assay, RPMI-8266; assay type: cell-based
Method: RPMI-8266, lymphoblast (myeloma), ATCC® CCL155™
as §1, §2, §3, §4, §5, §6
as §2, with “of 10,000” for “of 10000”, “of 40” for “of 100”
as §3, with “compounds” for “compound (S09)”

[3] = test system: RPMI-8266-LR5, lymphoblast (myeloma), selected for resistance to Melphalan; assay type: cell-based
Method: RPMI-8266-LR5, lymphoblast (myeloma), selected for resistance to Melphalan (Bellamy W T et al., Cancer Res. 1991 Feb. 1; 51(3):995-1002).
as §1, §2, §3, §4, §5, §6
as §2, with “of 10,000” for “of 10000”, “of 40” for “of 100”
as §3, with “compounds” for “compound (S09)”

[4] = test system: MBA-MD231, epithelial (breast cancer); experiment: MTT viability assay, MBA-MD231; assay type: cell-based
Method: MBA-MD231, epithelial (breast cancer), ECACC: 86012803 […] During the amplification step and the assays adherent cells were rinsed with DPBS (Dulbecco's Phosphate Buffered Saline, Sigma D1283) three times and afterward treated for 5 minutes with trypsin ([…]) (Gibco-BRL, 15400054) in solution of DPBS at 37° C., and, once detached, transferred in the culturing medium. No-adherent cells were centrifuged and transferred in the culturing medium. Cells were counted in a Neubauer chamber after labelling with Tripan-Blue. […] Cells were seeded at a density of 10,000 cells/well in 100 μl of medium in 96 well plates. […] Controls are the untreated cells. Each experiment was performed in triplicate. Cells were incubated with the compounds at the indicated concentrations during 24-72 h in incubator under CO2 atmosphere at 37° C. […] Stock solution of MTT (475989 Calbiochem) was 5 mg/ml in PBS. 1×.10 μl/well of MTT solution were added and the plate was incubated for 3-4 hr. […] Plates were incubated for 16 h at room temperature under orbital shaking. Absorbance at 570 nm was finally measured. […] The dose/response curve was fitted through the sigmoidal equation dose-response (variable slope) and the IC50 values were calculated as follow: […]

[5] = test system: U266-LR7, lymphoblast (myeloma), selected for resistance to Melphalan; assay type: cell-based
Method: U266-LR7, lymphoblast (myeloma), selected for resistance to Melphalan (Alvarez-Fernández et al. Clin Cancer Res. 2013 May 15; 19(10):2677-87).
as §1, §2, §3, §4, §5
U266-LR7, lymphoblast (myeloma), selected for resistance to Melphalan (Alvarez-Fernandez et al. Clin Cancer Res. 2013 May 15; 19(10):2677-87).
as §6
as §2, with “of 10,000” for “of 10000”, “of 40” for “of 100”
as §3, with “compounds” for “compound (S09)”

[6] = RPMI-LR5, 24 hr, Table 13, read-out: IC50 after 24 hr values
[7] = RPMI-LR5, 72 hr, Table 14, read-out: IC50 after 72 hr values
[8] = U266LR7, 24 hr, Table 13, read-out: IC50 after 24 hr values
[9] = U266LR7, 72 hr, Table 14, read-out: IC50 after 72 hr values

Compound | IC50 ([1]; 24 h) | IC50 ([1]; 72 h) | IC50 ([2]; 24 h) | IC50 ([2]; 72 h) | IC50 [3, 6] | IC50 [3, 7] | IC50 [4] | IC50 ([1]; read-out: IC50 values in μM for S09, MM1R (resistant to Dexamethasone), MTT, 24-72 h, Table 7) | IC50 ([2]; RPMI, MTT, 24-72 h, Table 7, read-out: IC50 values in μM for S09) | IC50 ([3]; RPMI-LR5 (resistant to Melphalan), MTT, 24-72 h, Table 7, read-out: IC50 values in μM for S09) | IC50 ([5]; U266LR7 (resistant to Melphalan), MTT, 24-72 h, Table 7, read-out: IC50 values in μM for S09) | IC50 ([4]; MBA-MD231, MTT, 24-72 h, Table 12, read-out: IC50 values) | IC50 [5, 8] | IC50 [5, 9]
CC[C@H](C)[C@H](NC(=O)[C@H](Cc1ccc(O)cc1)NC(=O)[C@H](C)NC(=O)[C@@H]1CSCc2ccc(cc2)-c2ccc(cc2)CSC[C@H](NC(=O)[C@H](CCCCN)NC(=O)[C@@H]2CCCN2C(=O)[C@H](C)N)C(=O)N[C@@H](C(C)C)C(=O)N[C@@H]([C@@H](C)CC)C(=O)N[C@@H](CC(C)C)C(=O)N[C@@H](CCCCN)C(=O)N[C@@H](CCCCN)C(=O)N[C@@H](C)C(=O)N1)C(=O)N[C@@H](CC(C)C)C(=O)N[C@@H](CO)C(=O)O [IDP-P1708161] (H-APKCVILKKACAYILS-OH; linker 4-11 via Biphenyl(4,4'-CH2)2; N-terminus and C-terminus assumed) | 12.5 µM | 15 µM | 5 µM | 7.5 µM | 35 µM | 35 µM | 29 ± 2 µM | – | – | – | – | – | – | –
CC[C@H](C)[C@H](NC(=O)[C@H](Cc1ccc(O)cc1)NC(=O)[C@H](C)NC(=O)C1(C)CCCC=CCCCCCCC(C)(NC(=O)[C@H](CCCCN)NC(=O)[C@@H]2CCCN2C(=O)[C@H](C)N)C(=O)N[C@@H](C(C)C)C(=O)N[C@@H]([C@@H](C)CC)C(=O)N[C@@H](CC(C)C)C(=O)N[C@@H](CCCCN)C(=O)N[C@@H](CCCCN)C(=O)N[C@@H](C)C(=O)N1)C(=O)N[C@@H](CC(C)C)C(=O)N[C@@H](CO)C(=O)O (stereo partly shown) [S09, APKXVILKKAXAYILS—OH] (H-APK[X1]VILKKA[ξαMeNle(6-ylidene)]AYILS-OH; staple 4-11; N-terminus assumed) | – | – | – | – | – | – | – | 8.3 µM | 7.4 µM | 11.4 µM | 9.7 µM | 4.9 ± 0.3 µM | – | –
CC[C@H](C)[C@H](NC(=O)[C@H](Cc1ccc(O)cc1)NC(=O)[C@H](C)NC(=O)C1CSCCCCCCCCSCC(NC(=O)[C@H](CCCCN)NC(=O)[C@@H]2CCCN2C(=O)[C@H](C)N)C(=O)N[C@@H](C(C)C)C(=O)N[C@@H]([C@@H](C)CC)C(=O)N[C@@H](CC(C)C)C(=O)N[C@@H](CCCCN)C(=O)N[C@@H](CCCCN)C(=O)N[C@@H](C)C(=O)N1)C(=O)N[C@@H](CC(C)C)C(=O)N[C@@H](CO)C(=O)O (stereo partly shown) [IDP-P1708160] (H-APK[ξC]VILKKA[ξC]AYILS-OH; linker 4-11 via Octanediyl(1,8); N-terminus and C-terminus assumed) | 15 µM | 10 µM | 15 µM | 15 µM | – | 7.5 µM | 42 ± 2 µM | – | – | – | – | – | 2.5 µM | 2.5 µM
CC[C@H](C)[C@H](NC(=O)[C@H](Cc1ccc(O)cc1)NC(=O)[C@H](C)NC(=O)C1(C)CCCC=CCCCCCCC(C)(NC(=O)[C@H](CCCCN)NC(=O)[C@@H]2CCCN2C(=O)[C@H](C)N)C(=O)N[C@@H](C(C)C)C(=O)N[C@@H]([C@@H](C)CC)C(=O)N[C@@H](Cc2ccccc2)C(=O)N[C@@H](CCCCN)C(=O)N[C@@H](CCCCN)C(=O)N[C@@H](C)C(=O)N1)C(=O)N[C@@H](CC(C)C)C(=O)N[C@@H](CO)C(=O)O (stereo partly shown) [S14, APKXVIFKKAXAYILS—OH] (H-APK[X1]VIFKKA[ξαMeNle(6-ylidene)]AYILS-OH; staple 4-11; N-terminus assumed) | 15 µM | 15 µM | 10 µM | 10 µM | 10 µM | 10 µM | – | – | – | – | – | – | 10 µM | 10 µM
